Measured values as given in ChEMBL document CHEMBL3885881, “DrugMatrix”.

Species on record: Rattus norvegicus
Assay: DrugMatrix - Regimen: Daily Repeat
Format: toxicity, organism-based, Sprague-Dawley
Set-up: regimen Daily Repeat, gender Male, age 6-8 weeks
Details: in vivo, po, 0 mg/kg, route oral GAVAGE, dose level Control, vehicle 100 % WATER; for ABSOLUTE BASOPHIL / ABSOLUTE EOSINOPHIL / ABSOLUTE LYMPHOCYTE / ABSOLUTE MONOCYTE / ABSOLUTE SEGMENTED NEUTROPHIL / BASOPHIL / EOSINOPHIL / ERYTHROCYTE COUNT / HEMATOCRIT / HEMOGLOBIN / LEUKOCYTE COUNT / LYMPHOCYTE / MEAN CORPUSCULAR HEMOGLOBIN / MEAN CORPUSCULAR HEMOGLOBIN CONCENTRATION / MEAN CORPUSCULAR VOLUME / MONOCYTE / NEUTROPHIL / NUCLEATED RED BLOOD CELLS / PLATELET COUNT: tissue Blood; for ALANINE AMINOTRANSFERASE / ALBUMIN / ALKALINE PHOSPHATASE / ASPARTATE AMINOTRANSFERASE / BLOOD UREA NITROGEN / CARBON DIOXIDE / CHLORIDE / CHOLESTEROL / CREATINE PHOSPHOKINASE / CREATININE / GLUCOSE / LIPASE / PHOSPHORUS / POTASSIUM / SODIUM / TOTAL BILIRUBIN / TOTAL PROTEIN / URIC ACID: tissue Plasma

Fc1ccc([C@@H]2CCNC[C@H]2COc2ccc3c(c2)OCO3)cc1 [PAROXETINE]
ABSOLUTE BASOPHIL (72 h, time 3 day): 0 CELLS/uL | ABSOLUTE EOSINOPHIL (72 h, time 3 day): 32.5 CELLS/uL | ABSOLUTE LYMPHOCYTE (72 h, time 3 day): 9305.83 CELLS/uL | ABSOLUTE MONOCYTE (72 h, time 3 day): 43.83 CELLS/uL | ABSOLUTE SEGMENTED NEUTROPHIL (72 h, time 3 day): 817.83 CELLS/uL | BASOPHIL (72 h, time 3 day): 0% | EOSINOPHIL (72 h, time 3 day): 0.33% | ERYTHROCYTE COUNT (72 h, time 3 day): 5.38 x10E6/uL | HEMATOCRIT (72 h, time 3 day): 33.63% | HEMOGLOBIN (72 h, time 3 day): 13.17 G/DL | LEUKOCYTE COUNT (72 h, time 3 day): 10.2 x10E3/uL | LYMPHOCYTE (72 h, time 3 day): 91.17% | MEAN CORPUSCULAR HEMOGLOBIN (72 h, time 3 day): 24.5 pg | MEAN CORPUSCULAR HEMOGLOBIN CONCENTRATION (72 h, time 3 day): 39.13 G/DL | MEAN CORPUSCULAR VOLUME (72 h, time 3 day): 62.53 fL | MONOCYTE (72 h, time 3 day): 0.5% | NEUTROPHIL (72 h, time 3 day): 8% | NUCLEATED RED BLOOD CELLS (72 h, time 3 day): 0.17 /100WBC | PLATELET COUNT (72 h, time 3 day): 858 x10E3/uL | ALANINE AMINOTRANSFERASE (72 h, time 3 day): 55.67 u/L | ALBUMIN (72 h, time 3 day): 4.07 G/DL | ALKALINE PHOSPHATASE (72 h, time 3 day): 337 u/L | ASPARTATE AMINOTRANSFERASE (72 h, time 3 day): 84 u/L | BLOOD UREA NITROGEN (72 h, time 3 day): 13.17 mg/dL | CARBON DIOXIDE (72 h, time 3 day): 34.17 mmol/L | CHLORIDE (72 h, time 3 day): 99.33 MEQ/L | CHOLESTEROL (72 h, time 3 day): 78.83 mg/dL | CREATINE PHOSPHOKINASE (72 h, time 3 day): 576.83 u/L | CREATININE (72 h, time 3 day): 0.17 mg/dL | GLUCOSE (72 h, time 3 day): 152.67 mg/dL | LIPASE (72 h, time 3 day): 9.5 u/L | PHOSPHORUS (72 h, time 3 day): 10.78 mg/dL | POTASSIUM (72 h, time 3 day): 6.34 MEQ/L | SODIUM (72 h, time 3 day): 144.12 MEQ/L | TOTAL BILIRUBIN (72 h, time 3 day): 0.18 mg/dL | TOTAL PROTEIN (72 h, time 3 day): 6.08 G/DL | URIC ACID (72 h, time 3 day): 0.65 mg/dL | ABSOLUTE BASOPHIL (120 h, time 5 day): 0 CELLS/uL | ABSOLUTE EOSINOPHIL (120 h, time 5 day): 31.17 CELLS/uL | ABSOLUTE LYMPHOCYTE (120 h, time 5 day): 7918.33 CELLS/uL | ABSOLUTE MONOCYTE (120 h, time 5 day): 58.33 CELLS/uL | ABSOLUTE SEGMENTED NEUTROPHIL (120 h, time 5 day): 725.5 CELLS/uL | BASOPHIL (120 h, time 5 day): 0% | EOSINOPHIL (120 h, time 5 day): 0.33% | ERYTHROCYTE COUNT (120 h, time 5 day): 5.32 x10E6/uL | HEMATOCRIT (120 h, time 5 day): 33.53% | HEMOGLOBIN (120 h, time 5 day): 13.17 G/DL | LEUKOCYTE COUNT (120 h, time 5 day): 8.73 x10E3/uL | LYMPHOCYTE (120 h, time 5 day): 90.33% | MEAN CORPUSCULAR HEMOGLOBIN (120 h, time 5 day): 24.82 pg | MEAN CORPUSCULAR HEMOGLOBIN CONCENTRATION (120 h, time 5 day): 39.33 G/DL | MEAN CORPUSCULAR VOLUME (120 h, time 5 day): 63.12 fL | MONOCYTE (120 h, time 5 day): 0.67% | NEUTROPHIL (120 h, time 5 day): 8.67% | NUCLEATED RED BLOOD CELLS (120 h, time 5 day): 0 /100WBC | PLATELET COUNT (120 h, time 5 day): 1144.83 x10E3/uL | ALANINE AMINOTRANSFERASE (120 h, time 5 day): 60.5 u/L | ALBUMIN (120 h, time 5 day): 3.97 G/DL | ALKALINE PHOSPHATASE (120 h, time 5 day): 343.17 u/L | ASPARTATE AMINOTRANSFERASE (120 h, time 5 day): 80.83 u/L | BLOOD UREA NITROGEN (120 h, time 5 day): 15 mg/dL | CARBON DIOXIDE (120 h, time 5 day): 31 mmol/L | CHLORIDE (120 h, time 5 day): 99.75 MEQ/L | CHOLESTEROL (120 h, time 5 day): 71.5 mg/dL | CREATINE PHOSPHOKINASE (120 h, time 5 day): 237.17 u/L | CREATININE (120 h, time 5 day): 0.17 mg/dL | GLUCOSE (120 h, time 5 day): 137 mg/dL | LIPASE (120 h, time 5 day): 11.5 u/L | PHOSPHORUS (120 h, time 5 day): 10.13 mg/dL | POTASSIUM (120 h, time 5 day): 6 MEQ/L | SODIUM (120 h, time 5 day): 145 MEQ/L | TOTAL BILIRUBIN (120 h, time 5 day): 0.13 mg/dL | TOTAL PROTEIN (120 h, time 5 day): 5.82 G/DL | URIC ACID (120 h, time 5 day): 0.62 mg/dL
